# Experimental data reported in US20150352108A1, “AMINO-PYRIMIDINE COMPOUNDS AS INHIBITORS OF TBK1 AND/OR IKK EPSILON” (Alzheimer's Institute of America, priority 2009, published 2015).
# Where two headings read alike, the source gives them in different places.
# Assays:
# TBK1 = target: T1, TBK1 (Homo sapiens, UniProt Q9UHD2); assay: In-vitro TBK1 kinase assay ([γ33]ATP filter-plate); assay type: biochemical
# T1 construct: His-tag; made in house; host or cells: Sf9 insect cells
# T1 sequence (Q9UHD2 1-729): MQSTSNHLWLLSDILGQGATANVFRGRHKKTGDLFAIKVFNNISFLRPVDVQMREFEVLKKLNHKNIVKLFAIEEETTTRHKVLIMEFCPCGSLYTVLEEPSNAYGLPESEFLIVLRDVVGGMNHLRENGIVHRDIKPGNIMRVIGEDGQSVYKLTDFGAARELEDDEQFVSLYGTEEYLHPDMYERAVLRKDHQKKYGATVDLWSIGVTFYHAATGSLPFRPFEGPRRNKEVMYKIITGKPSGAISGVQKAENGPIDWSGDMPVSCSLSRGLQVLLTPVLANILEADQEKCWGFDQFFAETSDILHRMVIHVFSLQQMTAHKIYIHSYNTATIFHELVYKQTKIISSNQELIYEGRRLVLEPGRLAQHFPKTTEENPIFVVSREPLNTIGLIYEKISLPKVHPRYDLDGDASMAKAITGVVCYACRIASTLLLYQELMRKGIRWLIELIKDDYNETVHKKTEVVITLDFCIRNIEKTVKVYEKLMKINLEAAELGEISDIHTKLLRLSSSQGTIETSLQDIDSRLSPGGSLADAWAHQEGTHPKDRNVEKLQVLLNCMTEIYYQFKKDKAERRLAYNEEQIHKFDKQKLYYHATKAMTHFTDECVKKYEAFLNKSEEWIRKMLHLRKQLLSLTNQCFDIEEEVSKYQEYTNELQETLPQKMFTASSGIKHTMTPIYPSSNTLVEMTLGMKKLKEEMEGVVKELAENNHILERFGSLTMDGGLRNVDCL
# How it was run: (§1)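 His-tagged IKKε and TBK1 from Sf9 cells were assayed with myelin basic protein or casein and [γ33]ATP at 2×Km ATP (32 μM for IKKε, 60 μM for TBK1). Enzyme was 0.1 or 0.015 μg/ml for IKKε and 0.1 or 0.02 μg/ml for TBK1 (normal/sensitized). Reactions ran 30-45 min, were filter-captured, scintillation-counted, and normalized to DMSO after background subtraction.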
# IKKε = target: T2, IKKε (Homo sapiens, UniProt Q14164); assay: In-vitro IKKε kinase assay ([γ33]ATP filter-plate); assay type: biochemical
# T2 construct: His-tag; made in house; host or cells: Sf9 insect cells
# T2 sequence (Q14164 1-716): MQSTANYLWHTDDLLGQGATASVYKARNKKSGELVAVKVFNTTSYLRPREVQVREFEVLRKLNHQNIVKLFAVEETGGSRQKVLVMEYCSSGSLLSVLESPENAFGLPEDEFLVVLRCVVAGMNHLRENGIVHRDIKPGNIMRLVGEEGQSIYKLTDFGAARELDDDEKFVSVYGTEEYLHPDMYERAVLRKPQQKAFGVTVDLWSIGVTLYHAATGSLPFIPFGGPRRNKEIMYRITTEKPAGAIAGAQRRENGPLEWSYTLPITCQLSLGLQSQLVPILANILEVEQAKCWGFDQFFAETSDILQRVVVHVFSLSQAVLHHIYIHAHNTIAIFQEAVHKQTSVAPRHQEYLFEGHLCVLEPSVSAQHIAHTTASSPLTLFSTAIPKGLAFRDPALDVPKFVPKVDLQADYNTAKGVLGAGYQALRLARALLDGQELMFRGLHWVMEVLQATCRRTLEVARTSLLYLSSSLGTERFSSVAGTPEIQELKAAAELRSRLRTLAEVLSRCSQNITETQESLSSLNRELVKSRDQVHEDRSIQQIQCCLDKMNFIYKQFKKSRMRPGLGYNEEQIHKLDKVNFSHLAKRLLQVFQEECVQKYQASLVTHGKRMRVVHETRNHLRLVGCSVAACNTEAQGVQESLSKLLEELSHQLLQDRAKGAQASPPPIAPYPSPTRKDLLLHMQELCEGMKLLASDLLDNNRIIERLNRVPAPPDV
# How it was run: as §1
# DU4475 cells = assay: Cell growth inhibition assay (CellTiter-Glo), DU4475; assay type: cell-based; conditions: Homo sapiens, DU-4475; 3-5 days
# Procedure: DU4475, COLO205, and OPM2 cells were plated in 96-well plates at 5000 cells/well. The following day test compounds (compounds according to Formula I) were added, maintaining the final DMSO solvent concentration at 0.4%. After the desired incubation time (3-5 days), cell number was assayed using the CellTiter-Glo luminescent cell viability assay (Promega, Inc., Madison, Wis.). Viability was expressed as percent DMSO control after background subtraction.
# [1] = system: secreted RANTES, prostate cancer DU145 cells; assay: ELISA to detect secreted RANTES, DU145 cells; assay type: cell-based; conditions: Homo sapiens, DU-145; cell system (DU145 or Poly(I:C)-induced MALME-3) not specified; read-out: IC50 for inhibition of the secretion of RANTES
# Procedure: Prostate cancer DU145 cells were seeded at 20,000 cells/well in a 96-well tissue culture plate. The following day media was removed and replaced with complete media containing IKKε/TBK1 inhibitor (starting concentration 25 µM, 1:3 dilutions, final DMSO 0.05%). Cells were incubated for 20 hours and culture supernatant used to determine secreted RANTES levels using a commercially available ELISA kit (R & D Systems, Minneapolis, Minn.).
# [2] = system: IKKε-mediated phosphorylation of IRF3; assay: In-situ phosphorylation of IRF3 (pIRF3 Ser396 ELISA) in HEK293T cells cotransfected with IRF3 and IKKε; assay type: cell-based; conditions: Homo sapiens, HEK-293T
# How it was run: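 For the IRF3 ELISA, HEK293T cells cotransfected with IRF3 and IKKε were replated at 20,000/well and treated 20 h. Phospho-Ser396 IRF3 was measured by ELISA and normalised to DMSO, with viability checked by CellTiter-Glo. For IRF7, cells transfected with IRF7 and TBK1 were treated overnight, and pSer477/Ser479 IRF7 was detected by Western blot.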
# [3] = system: RANTES secretion, RAW264.7 cells; assay: RANTES secretion by RAW264.7 cells after nucleic acid agonists (ELISA); assay type: cell-based, Mouse; conditions: 100 nM
# Description: (§2) Mouse RAW264.7 macrophage-like cells provide a model for macrophage function in tissue culture. To investigate the efficacy of compounds according to Formula I in inhibiting nucleic acid cytosolic receptor pathways RAW264.7 cells were pretreated with a compound according to Formula I (Example Compound 471) and then exposed to various single stranded and double stranded RNA and DNA agonists introduced into the cell. To track IKKε/TBK1 signaling pathway activation, RANTES or IFN-β protein secretion was monitored by ELISA-based assays (R & D systems), such as those described above.
# RAW264.7 cells were seeded in 96-well culture plates and allowed to grow overnight. The following day, media was replaced and cells were pretreated with 100 nM Example Compound 471 (0.1% final DMSO concentration). After one hour cells were transfected with Lipofectime LTX reagent (Invitrogen, Carlsbad, Calif.) and one of the following agonists: low molecular weight Poly(I:C) (InvivoGen, San Diego, Calif.) at 10 μg/ml to activate RIG-I; high molecular weight Poly(I:C) (InvivoGen, San Diego, Calif.) at 10 μg/ml to activate MDA5; Poly(dA:dT) (InvivoGen, San Diego, Calif.) at 1 ug/ml; 45-basepair double stranded interferon stimulatory DNA oligo (ISD) at 10 μg/ml (Stetson and Medzhitov; Recognition of cytosolic DNA activates an IRF3-dependent innate immune response; Immunity, 24:93-103, 2006); ssDNA at 10 μg/ml (InvivoGen, San Diego, Calif.), ssRNA at 0.5 μg/ml (InvivoGen, San Diego, Calif.), or salmon sperm genomic DNA (gDNA) (InvivoGen, San Diego, Calif.) at 10 ug/ml to activate DAI, IFI16, and other cytosolic nucleic acid receptors. RANTES (FIG. 5) and IFN-β (FIG. 6) secretion were quantified using ELISA kits (Mouse CCL5/RANTES, R&D Systems, Inc., Minneapolis, Minn. and Mouse IFN-β, Thermo Fisher Scientific, Rockford, Ill.).
# [4] = system: IFN-β secretion, RAW264.7 cells; assay: IFN-β secretion by RAW264.7 cells after nucleic acid agonists (ELISA); assay type: cell-based, Mouse; conditions: 100 nM
# Description: as §2
# RAW264.7 cells were seeded in 96-well culture plates and allowed to grow overnight. The following day, media was replaced and cells were pretreated with 100 nM Example Compound 471 (0.1% final DMSO concentration). […] RANTES (FIG. 5) and IFN-β (FIG. 6) secretion were quantified using ELISA kits (Mouse CCL5/RANTES, R&D Systems, Inc., Minneapolis, Minn. and Mouse IFN-β, Thermo Fisher Scientific, Rockford, Ill.).
# [5] = text bins, read-out: IC50 for inhibition of the kinase activity of TBK1
# [6] = text bins, read-out: IC50 for inhibition of the kinase activity of IKKε
# [7] = HEK293T cells, 20 hours, text bins, read-out: IC50 for inhibition of the in-situ IKKε-mediated phosphorylation of IRF3
Compound,IC50 (TBK1; [5]) [µM],IC50 (IKKε; [6]) [µM],IC50 [1] [µM],"IC50 [2, 7] [µM]",IC50 (DU4475 cells) [µM],further results
"COc1ccc(-c2ccnc(Nc3cc(CO)c(OC)c(OC)c3)n2)cc1C#N [Example 127, 5-(2-{[3-(Hydroxymethyl)-4,5-dimethoxyphenyl]amino}pyrimidin-4-yl)-2-methoxybenzonitrile]",< 0.01,< 0.005,,,≤ 0.01,
"COCCOCC(=O)Nc1cc(Nc2nccc(-c3ccc(OC)c(C#N)c3)n2)cc(OC)c1 [compound 316, N-(3-{[4-(3-Cyano-4-methoxyphenyl)pyrimidin-2-yl]amino}-5-methoxyphenyl)-2-(2-methoxyethoxy) acetamide]",,0.005 to 0.05,,,≤ 0.01,
"COc1cc(NC(=O)CCSC)cc(Nc2nccc(-c3ccc(OC)c(C#N)c3)n2)c1 [compound 339, N-(3-{[4-(3-Cyano-4-methoxyphenyl)pyrimidin-2-yl]amino}-5-methoxyphenyl)-3-(methylsulfanyl) propanamide]",0.01 to 0.1,0.005 to 0.05,,,≤ 0.01,
"COc1cc(-c2ccnc(Nc3ccc(N4CCN(CCO)CC4)cc3)n2)cc(C#N)c1OC1CCOCC1 [compound 446, 5-[2-({4-[4-(2-Hydroxyethyl)piperazin-1-yl]phenyl}amino)pyrimidin-4-yl]-3-methoxy-2-(tetrahydro-2H-pyran-4-yloxy)benzonitrile]",< 0.01,< 0.005,< 0.01,< 0.1,,

# Continued, in another order:
IC50 (TBK1; [5]) [µM],IC50 (IKKε; [6]) [µM],IC50 [1] [µM],"IC50 [2, 7] [µM]",Compound,IC50 (DU4475 cells) [µM],further results
< 0.01,< 0.005,,< 0.1,"N#Cc1cc(-c2ccnc(Nc3ccc(N4CCOCC4)cc3)n2)ccc1O[C@@H]1CCN(C(=O)CO)C1 [compound 471, 2-{[(3R)-1-(hydroxyacetyl)pyrrolidin-3-yl]oxy}-5-(2-{[4-(morpholin-4-yl)phenyl]amino}pyrimidin-4-yl)benzonitrile]",,"induction of RANTES secretion by DNA agonists ISD, ssDNA, poly(dA:dT), gDNA [3]: potently inhibited; induction of RANTES secretion by low and high molecular weight poly(I:C) [3]: modestly inhibited; induction of RANTES secretion by ssRNA agonist [3]: potently inhibited; induction of IFN-β secretion by DNA agonists ISD, ssDNA, poly(dA:dT), gDNA [4]: potently inhibited; induction of IFN-β secretion by low and high molecular weight poly(I:C) [4]: modestly inhibited"
< 0.01,< 0.005,< 0.01,< 0.1,"CC(=O)NCc1ccc(Nc2nccc(-c3ccc(OC4CCOCC4)c(C#N)c3)n2)cc1 [compound 492, N-[4-({4-[3-cyano-4-(tetrahydro-2H-pyran-4-yloxy)phenyl]pyrimidin-2-yl}amino)benzyl] acetamide]",,
< 0.01,< 0.005,< 0.01,< 0.1,"COc1cc(Nc2nccc(-c3ccc(OC4CCOCC4)c(C#N)c3)n2)ccc1C(=O)N(C)CCN(C)C [compound 505, 4-({4-[3-cyano-4-(tetrahydro-2H-pyran-4-yloxy)phenyl]pyrimidin-2-yl}amino)-N-[2-(dimethylamino)ethyl]-2-mrthoxy-N-methylbenzamide]",,
< 0.01,< 0.005,,< 0.1,COCCNCc1ccc(Nc2nccc(-c3ccc(OCC(C)C)c(C#N)c3)n2)cc1 [compound 651],,
< 0.01,< 0.005,,< 0.1,N#Cc1cc(-c2ccnc(Nc3cccc(NCCN4CCOCC4)c3)n2)ccc1OC1CCOCC1 [compound 657],,"IC50 (TBK1; Table 3, read-out: TBK1 IC50): 0.0013 µM; IC50 ([2]; HEK293T cells in culture, Table 3, read-out: pIRF3 ELISA IC50): 0.0976 µM; IC50 (IKKε; Table 3, read-out: IKKε IC50): 0.0013 µM"
